Data from patent US20100160445A1, “Synergistic Mixtures of OPP and DGH” (priority 2002, published 2010).

Key:
[1] = test system: mixed inoculum of bacteria; test: MIC and synergy (K) in nutrient broth, microtiter plates; format: cell-based
Procedure: Stock solutions of each product were prepared in sterile distilled water. Synergism was measured by the method first described by F. C. Kull, P. C. Eisman, H. D. Sylwestrowicz and R. L. Mayer in Applied Microbiology, 9, 538-41 ([…]). This manner of determining synergism has been widely used and is industrially acceptable. It is believed that the specified method is sufficient in explaining the process. However for a further description, reference can be made to U.S. Pat. No. 3,231,509 and its file history, where this type of data was considered acceptable.
• 1. Incubator capable of maintaining a variable temperature range (25-45 C) • 2. Samples of each biocide or test compound to be examined • 3. Microtiter plates—96 well with lid, sterile. • 4. 8-12 channel micropipetting device capable of pipetting 0-250 ul volumes • 5. Micropipette tips capable of holding up to 250 ul volumes • 6. Sterile microbiological culture broth. Trypticase Soy Broth (TSB) or Nutrient Broth (NB) is recommended for bacteria and Sabouraud Maltose Broth (SMB) or Sabouraud Dextrose Broth (SDB) is recommended for yeasts and molds. In the case of this particular study the microbiological culture medium was Nutrient Broth at pH 7.0, 8.0 and 9.0. • 7. Pure cultures of microorganisms of choice grown on appropriate agar medium • 8. Sterile distilled water • 9. 100 mL volumetric flasks (one for each biocide to be tested) • 10. Sterile 10 mL tubes of Phosphate buffer (Butterfield's buffer pH 7.2+/−0.2). Contains purified water, monobasic potassium phosphate and sodium hydroxide for pH adjustment. • 11. Sterile cotton swabs • 12. 0.5 MacFarland Turbidity Standard
The day before testing, perform a streak plate of each organism to be tested on an appropriate agar medium (Trypticase Soy Agar). Organisms tested in this study were: Wild strain bacteria isolated from previously contaminated industrial systems and which were identified as: Pseudomonas sp., Escherchia coli , Enterobacter sp., Alcaligenes sp. and Alcaligenes faecalis. On the day of the test, use a sterile cotton swab to harvest some of the growth. Place swab into a tube containing 10 mL sterile phosphate buffer. Compare and adjust the turbidity of the organisms in the tube to 1×10^8 cfu/mL using a 0.5 MacFarland Turbidity Standard. Dilute the 10 mL tube into 90 mL of sterile 2× nutrient broth at pH 7.0, 8.0 and 9.0.
1. Design the layout of the microtiter plates based on the number of organisms to test and the number of biocides and desired concentrations to test. A separate microtiter plate is required for testing each biocide alone, in addition to the combination microtiter plate. 2. Prepare a working stock solution of each biocide to be tested. For the combination microtiter plate, the working stock solution of Biocide A will be 8× the concentration desired in the first well of the combination microtiter plate. The working stock solution of Biocide B will be 4× the concentration desired in the first well of the combination microtiter plate. For the alone microtiter plates, the working stock solutions of Biocide A and Biocide B will both be 4× the concentration desired in the first well of the single biocide microtiter plates.
Dodecylguanidine hydrochloride: (For combination plates) A solution of this product which is 35% active, was made as follows: […]=8000 ppm active=8000/0.35=22,857 ppm, 2.28 g into 100 mL sterile diH2O. Levels to test are: 1000 ppm, 500 ppm, 250 ppm, 125 ppm, 62.5 ppm, 31.2 ppm, 15.6 ppm, 7.8 ppm, 3.9 ppm, 1.95 ppm
Ortho-PhenylPhenol: (For combination plates) Make a solution of this product which is 99% active, 4×125=500 ppm active=500/0.99=505 ppm, 0.05 g into 100 mL MeOH and sterile diH2O. Level to test is 125 ppm.
3. Place 50 ul of sterile distilled water in all of the rows in columns 1 through 10, and 100 ul of sterile distilled water in all of the rows in columns 11 and 12 of the 96 well combination microtiter plate. […]

[2] = test system: wild strain bacteria isolated from previously contaminated systems; test: In-Can Preservation Test of paint samples; format: cell-based; details: for Effective Preservative (ppm): two inoculation challenge; for Microbial growth, 1st Inoculation, 1st sub-column: key: 4 = Heavy Microbial Growth; 3 = Moderate Microbial Growth; 2 = Slight Microbial Growth; 1 = Trace Microbial Growth; 0 = No Microbial Growth; for Microbial growth, 1st Inoculation, 2nd sub-column: key: 4 = Heavy Microbial Growth; 3 = Moderate Microbial Growth; 2 = Slight Microbial Growth; 1 = Trace Microbial Growth; 0 = No Microbial Growth; for Microbial growth, 2nd Inoculation, 1st sub-column: key: 4 = Heavy Microbial Growth; 3 = Moderate Microbial Growth; 2 = Slight Microbial Growth; 1 = Trace Microbial Growth; 0 = No Microbial Growth; for Microbial growth, 2nd Inoculation, 2nd sub-column: key: 4 = Heavy Microbial Growth; 3 = Moderate Microbial Growth; 2 = Slight Microbial Growth; 1 = Trace Microbial Growth; 0 = No Microbial Growth
Procedure: Preservation Testing was performed on the three paint samples: Acrylic Flat, Acrylic and Vinyl Acrylic. Each sample was treated with various levels OPP, DGH individually and a mixture of OPP and DGH. All samples were then inoculated with wild strain bacteria isolated from previously contaminated systems. Following the initial inoculation, the samples were reinoculated on day 7. This testing scenario best simulates what happens in a “real world” situation. […]

[3] = Table 2 paint (Acrylic Flat / Vinyl Acrylic Flat), 1000 ppm
[4] = Table 2 paint (Acrylic Flat / Vinyl Acrylic Flat), 1500 ppm
[5] = Table 2 paint (Acrylic Flat / Vinyl Acrylic Flat), 2000 ppm
[6] = Table 2 paint (Acrylic Flat / Vinyl Acrylic Flat), 2500 ppm
[7] = Table 2 paint (Acrylic Flat / Vinyl Acrylic Flat), 3000 ppm
[8] = Table 2 paint (Acrylic Flat / Vinyl Acrylic Flat), 3500 ppm
[9] = Table 2 paint (Acrylic Flat / Vinyl Acrylic Flat), 4000 ppm
[10] = Table 3 paint (Vinyl Acrylic Flat / Acrylic Flat), 1000 ppm
[11] = Table 3 paint (Vinyl Acrylic Flat / Acrylic Flat), 1500 ppm
[12] = Table 3 paint (Vinyl Acrylic Flat / Acrylic Flat), 2000 ppm
[13] = Table 3 paint (Vinyl Acrylic Flat / Acrylic Flat), 2500 ppm
[14] = Table 3 paint (Vinyl Acrylic Flat / Acrylic Flat), 3000 ppm
[15] = Table 3 paint (Vinyl Acrylic Flat / Acrylic Flat), 3500 ppm
[16] = Table 3 paint (Vinyl Acrylic Flat / Acrylic Flat), 4000 ppm

Compound: Oc1ccccc1-c1ccccc1 [OPP, Ortho-PhenylPhenol]
- MIC ([1]; pH 7, read-out: MIC, biocide alone): > 1000 µg/mL
- Synergy Index ([1]; pH 8.0, 1000 ppm NaOPP alone (0:100)): 1.00
- Synergy Index ([1]; pH 9.0, 500 ppm NaOPP alone (0:100)): 1.00
- Effective Preservative (ppm) ([2]; Acrylic Flat paint): >4000 ppm
- Microbial growth, 1st Inoculation, 1st sub-column ([2]; Acrylic paint, 1000 ppm): 3
- Microbial growth, 1st Inoculation, 2nd sub-column ([2]; Acrylic paint, 1000 ppm): 3
- Microbial growth, 2nd Inoculation, 1st sub-column ([2]; Acrylic paint, 1000 ppm): 3
- Microbial growth, 2nd Inoculation, 2nd sub-column ([2]; Acrylic paint, 1000 ppm): 3
- Microbial growth, 1st Inoculation, 1st sub-column ([2]; Acrylic paint, 1500 ppm): 3
- Microbial growth, 1st Inoculation, 2nd sub-column ([2]; Acrylic paint, 1500 ppm): 3
- Microbial growth, 2nd Inoculation, 1st sub-column ([2]; Acrylic paint, 1500 ppm): 3
- Microbial growth, 2nd Inoculation, 2nd sub-column ([2]; Acrylic paint, 1500 ppm): 3
- Microbial growth, 1st Inoculation, 1st sub-column ([2]; Acrylic paint, 2000 ppm): 3
- Microbial growth, 1st Inoculation, 2nd sub-column ([2]; Acrylic paint, 2000 ppm): 3
- Microbial growth, 2nd Inoculation, 1st sub-column ([2]; Acrylic paint, 2000 ppm): 3
- Microbial growth, 2nd Inoculation, 2nd sub-column ([2]; Acrylic paint, 2000 ppm): 3
- Microbial growth, 1st Inoculation, 1st sub-column ([2]; Acrylic paint, 2500 ppm): 3
- Microbial growth, 1st Inoculation, 2nd sub-column ([2]; Acrylic paint, 2500 ppm): 3
- Microbial growth, 2nd Inoculation, 1st sub-column ([2]; Acrylic paint, 2500 ppm): 3
- Microbial growth, 2nd Inoculation, 2nd sub-column ([2]; Acrylic paint, 2500 ppm): 3
- Microbial growth, 1st Inoculation, 1st sub-column ([2]; Acrylic paint, 3000 ppm): 3
- Microbial growth, 1st Inoculation, 2nd sub-column ([2]; Acrylic paint, 3000 ppm): 3
- Microbial growth, 2nd Inoculation, 1st sub-column ([2]; Acrylic paint, 3000 ppm): 3
- Microbial growth, 2nd Inoculation, 2nd sub-column ([2]; Acrylic paint, 3000 ppm): 3
- Microbial growth, 1st Inoculation, 1st sub-column ([2]; Acrylic paint, 3500 ppm): 3
- Microbial growth, 1st Inoculation, 2nd sub-column ([2]; Acrylic paint, 3500 ppm): 3
- Microbial growth, 2nd Inoculation, 1st sub-column ([2]; Acrylic paint, 3500 ppm): 3
- Microbial growth, 2nd Inoculation, 2nd sub-column ([2]; Acrylic paint, 3500 ppm): 3
- Microbial growth, 1st Inoculation, 1st sub-column ([2]; Acrylic paint, 4000 ppm): 3
- Microbial growth, 1st Inoculation, 2nd sub-column ([2]; Acrylic paint, 4000 ppm): 3
- Microbial growth, 2nd Inoculation, 1st sub-column ([2]; Acrylic paint, 4000 ppm): 3
- Microbial growth, 2nd Inoculation, 2nd sub-column ([2]; Acrylic paint, 4000 ppm): 3
- Effective Preservative (ppm) ([2]; Acrylic paint): >4000 ppm
- Microbial growth, 1st Inoculation, 1st sub-column [2, 3]: 3
- Microbial growth, 1st Inoculation, 2nd sub-column [2, 3]: 3
- Microbial growth, 2nd Inoculation, 1st sub-column [2, 3]: 3
- Microbial growth, 2nd Inoculation, 2nd sub-column [2, 3]: 3
- Microbial growth, 1st Inoculation, 1st sub-column [2, 4]: 3
- Microbial growth, 1st Inoculation, 2nd sub-column [2, 4]: 3
- Microbial growth, 2nd Inoculation, 1st sub-column [2, 4]: 3
- Microbial growth, 2nd Inoculation, 2nd sub-column [2, 4]: 3
- Microbial growth, 1st Inoculation, 1st sub-column [2, 5]: 3
- Microbial growth, 1st Inoculation, 2nd sub-column [2, 5]: 3
- Microbial growth, 2nd Inoculation, 1st sub-column [2, 5]: 3
- Microbial growth, 2nd Inoculation, 2nd sub-column [2, 5]: 3
- Microbial growth, 1st Inoculation, 1st sub-column [2, 6]: 3
- Microbial growth, 1st Inoculation, 2nd sub-column [2, 6]: 3
- Microbial growth, 2nd Inoculation, 1st sub-column [2, 6]: 3
- Microbial growth, 2nd Inoculation, 2nd sub-column [2, 6]: 3
- Microbial growth, 1st Inoculation, 1st sub-column [2, 7]: 3
- Microbial growth, 1st Inoculation, 2nd sub-column [2, 7]: 3
- Microbial growth, 2nd Inoculation, 1st sub-column [2, 7]: 3
- Microbial growth, 2nd Inoculation, 2nd sub-column [2, 7]: 3
- Microbial growth, 1st Inoculation, 1st sub-column [2, 8]: 3
- Microbial growth, 1st Inoculation, 2nd sub-column [2, 8]: 3
- Microbial growth, 2nd Inoculation, 1st sub-column [2, 8]: 3
- Microbial growth, 2nd Inoculation, 2nd sub-column [2, 8]: 3
- Microbial growth, 1st Inoculation, 1st sub-column [2, 9]: 3
- Microbial growth, 1st Inoculation, 2nd sub-column [2, 9]: 3
- Microbial growth, 2nd Inoculation, 1st sub-column [2, 9]: 3
- Microbial growth, 2nd Inoculation, 2nd sub-column [2, 9]: 3
- Microbial growth, 1st Inoculation, 1st sub-column [2, 10]: 2
- Microbial growth, 1st Inoculation, 2nd sub-column [2, 10]: 2
- Microbial growth, 2nd Inoculation, 1st sub-column [2, 10]: 2
- Microbial growth, 2nd Inoculation, 2nd sub-column [2, 10]: 2
- Microbial growth, 1st Inoculation, 1st sub-column [2, 11]: 2
- Microbial growth, 1st Inoculation, 2nd sub-column [2, 11]: 2
- Microbial growth, 2nd Inoculation, 1st sub-column [2, 11]: 2
- Microbial growth, 2nd Inoculation, 2nd sub-column [2, 11]: 2
- Microbial growth, 1st Inoculation, 1st sub-column [2, 12]: 2
- Microbial growth, 1st Inoculation, 2nd sub-column [2, 12]: 2
- Microbial growth, 2nd Inoculation, 1st sub-column [2, 12]: 2
- Microbial growth, 2nd Inoculation, 2nd sub-column [2, 12]: 2
- Microbial growth, 1st Inoculation, 1st sub-column [2, 13]: 2
- Microbial growth, 1st Inoculation, 2nd sub-column [2, 13]: 2
- Microbial growth, 2nd Inoculation, 1st sub-column [2, 13]: 2
- Microbial growth, 2nd Inoculation, 2nd sub-column [2, 13]: 2
- Microbial growth, 1st Inoculation, 1st sub-column [2, 14]: 2
- Microbial growth, 1st Inoculation, 2nd sub-column [2, 14]: 2
- Microbial growth, 2nd Inoculation, 1st sub-column [2, 14]: 2
- Microbial growth, 2nd Inoculation, 2nd sub-column [2, 14]: 2
- Microbial growth, 1st Inoculation, 1st sub-column [2, 15]: 2
- Microbial growth, 1st Inoculation, 2nd sub-column [2, 15]: 1
- Microbial growth, 2nd Inoculation, 1st sub-column [2, 15]: 2
- Microbial growth, 2nd Inoculation, 2nd sub-column [2, 15]: 1
- Microbial growth, 1st Inoculation, 1st sub-column [2, 16]: 2
- Microbial growth, 1st Inoculation, 2nd sub-column [2, 16]: 0
- Microbial growth, 2nd Inoculation, 1st sub-column [2, 16]: 2
- Microbial growth, 2nd Inoculation, 2nd sub-column [2, 16]: 0
- Effective Preservative (ppm) ([2]; Vinyl Acrylic Flat paint): 4000 ppm
